Patent US7214826B2, “Amine compounds and inhibiting neurotransmitter reuptake” (Mayo Foundation for Medical Education and Research, priority 2001, dated 2007)

Assays:
[1] = target: T1, human norepinephrine transporter (hNET) (Homo sapiens, UniProt P23975); assay: Human transporter binding studies: radioligand binding to cloned hNET ([3H]nisoxetine); details: for Kd: HEK-293 cell membranes, 0.5 nM [3H]nisoxetine, 22° C., 60 minutes, geometric mean of at least three experiments; for specificity for hNET compared to venlafaxine (in words): comparison of Kd values with venlafaxine
T1 construct: expressed in transfected cells
T1 sequence (P23975 whole entry): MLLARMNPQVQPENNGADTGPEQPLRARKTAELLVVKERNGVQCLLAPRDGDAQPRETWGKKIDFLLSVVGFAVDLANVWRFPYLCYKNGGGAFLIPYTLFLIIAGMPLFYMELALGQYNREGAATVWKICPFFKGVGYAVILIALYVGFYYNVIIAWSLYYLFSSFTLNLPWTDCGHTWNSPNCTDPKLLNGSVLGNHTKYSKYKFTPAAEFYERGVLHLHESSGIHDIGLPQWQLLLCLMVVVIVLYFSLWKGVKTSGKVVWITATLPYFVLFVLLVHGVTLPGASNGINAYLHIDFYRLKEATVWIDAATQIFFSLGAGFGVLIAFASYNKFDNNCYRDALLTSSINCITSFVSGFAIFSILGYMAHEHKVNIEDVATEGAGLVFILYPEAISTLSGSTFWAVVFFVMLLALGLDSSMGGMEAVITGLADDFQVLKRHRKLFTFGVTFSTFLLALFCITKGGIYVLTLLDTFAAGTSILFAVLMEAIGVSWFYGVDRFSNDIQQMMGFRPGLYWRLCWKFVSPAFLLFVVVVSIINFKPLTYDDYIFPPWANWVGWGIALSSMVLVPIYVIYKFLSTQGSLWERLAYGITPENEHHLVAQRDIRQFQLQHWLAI
Procedure: (§1) The cells were incubated in 10% CO2, 90% air at 37° C. and 100% humidity. The hNET cell cultures contained 250 μg/mL geneticin sulfate. The cells were grown to 70–80% confluency prior to harvesting.
(§2) Cell membranes containing hSERT, hNET, or hDAT were prepared from the cell lines to assay ligand binding for each of the transporters. […] The washed cells were incubated for 5 minutes at 38° C. in 10 mL solution 1 containing 100 mM ethylene glycol-bis N,N,N′,N′-tetraacetic acid (EGTA). The cells were then scraped from the flask surface with a rubber spatula, placed into a centrifuge tube, and collected by centrifugation at 1000×g for 5 minutes at 4° C. The resulting supernatant was discarded, and the cell pellet was resuspended in 0.5 to 1.0 mL of the appropriate binding buffer (described below). The resuspended cell pellet was homogenized using a Polytron for 10 seconds at setting 6. The resulting homogenate was centrifuged at about 36,000×g for 10 minutes at 4° C. The supernatant was discarded, and the pellet was resuspended in the same volume of the appropriate binding buffer and centrifuged again. The supernatant was discarded, and the final pellet containing cell membranes was resuspended in the appropriate binding buffer and stored at −80° C. until use.
To assess binding to the cloned hNET, cells expressing hNET were homogenized in 50 mM Tris-HCl with 300 mM NaCl and 5 mM KCl (pH 7.4). […] A reaction to determine non-specific binding consisted of 25 μg cell membrane protein, 0.5 nM [^3H]nisoxetine, and 1 μM final concentration of unlabeled nisoxetine. The reactions were incubated at 22° C. for 60 minutes. Following incubation, the reactions were terminated by rapid filtration through separate GF/B filter strips pretreated with 0.2% polyethylenimine in a 48-well Brandel cell harvester. The cell membrane-containing filter strips were then rinsed five times with ice-cold 0.9% NaCl. After rinsing, individual filters were cut from the strip and placed in a scintillation vial containing 6.5 mL of Redi-Safe (Beckman Instruments, Fullerton, Calif.). Radioactivity was measured with a Beckman liquid scintillation counter (LS 5000TD).
(§3) The program was modified to calculate the Hill coefficient (nH). Data are presented as geometric mean ±S.E.M. of at least three independent experiments. One-component models and two-component models were compared using the root mean square error of each fit and the F test.

[2] = target: T2, human dopamine transporter (hDAT) (Homo sapiens, UniProt Q01959); assay: Human transporter binding studies: radioligand binding to cloned hDAT ([3H]WIN35428); details: for Kd: HEK-293 cell membranes, 1 nM [3H]WIN35428, 22° C., 1 hour, geometric mean of at least three experiments; for specificity for hDAT compared to venlafaxine (in words): comparison of Kd values with venlafaxine
T2 construct: expressed in transfected cells
T2 sequence (Q01959 whole entry): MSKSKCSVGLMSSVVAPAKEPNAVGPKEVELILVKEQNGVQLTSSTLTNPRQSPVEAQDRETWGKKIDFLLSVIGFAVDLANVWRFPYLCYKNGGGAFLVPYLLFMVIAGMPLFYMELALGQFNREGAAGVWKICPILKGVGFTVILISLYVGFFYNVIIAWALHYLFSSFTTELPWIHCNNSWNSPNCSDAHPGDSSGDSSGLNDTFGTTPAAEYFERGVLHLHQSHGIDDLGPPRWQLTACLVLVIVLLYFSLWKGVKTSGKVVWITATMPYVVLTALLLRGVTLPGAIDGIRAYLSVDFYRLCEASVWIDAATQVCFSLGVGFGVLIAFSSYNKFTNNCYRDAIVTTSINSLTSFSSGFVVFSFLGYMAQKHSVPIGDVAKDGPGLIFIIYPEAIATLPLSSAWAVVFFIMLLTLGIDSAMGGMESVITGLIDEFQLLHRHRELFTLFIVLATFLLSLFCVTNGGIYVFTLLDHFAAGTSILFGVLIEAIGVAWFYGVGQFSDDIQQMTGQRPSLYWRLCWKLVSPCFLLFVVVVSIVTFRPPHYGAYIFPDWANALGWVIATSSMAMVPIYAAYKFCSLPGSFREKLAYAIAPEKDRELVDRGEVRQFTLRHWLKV
Procedure: as §1, §2
To assess binding to the cloned hDAT, cells expressing hDAT were homogenized in 50 mM Tris-HCl with 120 mM NaCl (pH 7.4). […] The reactions were incubated at 22° C. for 1 hour. Following incubation, the reactions were terminated by rapid filtration through separate GF/B filter strips pretreated with 0.2% polyethylenimine in a 48-well Brandel cell harvester. The cell membrane-containing filter strips were then rinsed five times with ice-cold 0.9% NaCl. After rinsing, individual filters were cut from the strip and placed in a scintillation vial containing 6.5 mL of Redi-Safe (Beckman Instruments, Fullerton, Calif.). Radioactivity was measured with a Beckman liquid scintillation counter (LS 5000TD).
as §3

[3] = target: T3, human serotonin transporter (hSERT) (Homo sapiens, UniProt P31645); assay: Human transporter binding studies: radioligand binding to cloned hSERT ([3H]imipramine); details: for Kd: HEK-293 cell membranes, 1.0 nM [3H]imipramine, 22° C., 60 minutes, geometric mean of at least three experiments; for specificity for hSERT relative to hNET and hDAT (in words): comparison of Kd values between transporters; for specificity for hSERT compared to venlafaxine (in words): comparison of Kd values with venlafaxine
T3 construct: expressed in transfected cells
T3 sequence (P31645 whole entry): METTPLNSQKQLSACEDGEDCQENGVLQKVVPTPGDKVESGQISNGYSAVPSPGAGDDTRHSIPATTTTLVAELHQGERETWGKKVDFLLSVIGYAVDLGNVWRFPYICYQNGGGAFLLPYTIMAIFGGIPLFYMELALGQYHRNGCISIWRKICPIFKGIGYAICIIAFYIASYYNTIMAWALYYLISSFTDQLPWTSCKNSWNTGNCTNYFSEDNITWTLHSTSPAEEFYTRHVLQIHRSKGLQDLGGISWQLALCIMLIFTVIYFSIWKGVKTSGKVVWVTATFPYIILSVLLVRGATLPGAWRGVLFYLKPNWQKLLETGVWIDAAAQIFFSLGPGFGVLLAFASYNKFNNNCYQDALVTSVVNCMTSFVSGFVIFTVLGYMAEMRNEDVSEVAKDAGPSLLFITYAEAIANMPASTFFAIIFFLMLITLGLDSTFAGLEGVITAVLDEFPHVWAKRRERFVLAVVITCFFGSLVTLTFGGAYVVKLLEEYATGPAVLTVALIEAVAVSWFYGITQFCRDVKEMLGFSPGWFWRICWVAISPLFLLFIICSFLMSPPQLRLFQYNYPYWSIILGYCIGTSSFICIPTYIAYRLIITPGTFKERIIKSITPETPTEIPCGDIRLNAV
Procedure: as §1, §2
Radioligand binding assays for the indicated transporters were performed as follows. To assess binding to the cloned hSERT, cells expressing hSERT were homogenized in 50 mM Tris-HCl with 120 mM NaCl and 5 mM KCl (pH 7.4). […] The reactions were incubated at 22° C. for 60 minutes. Following incubation, the reactions were terminated by rapid filtration through separate GF/B filter strips pretreated with 0.2% polyethylenimine in a 48-well Brandel cell harvester. The cell membrane-containing filter strips were then rinsed five times with ice-cold 0.9% NaCl. After rinsing, individual filters were cut from the strip and placed in a scintillation vial containing 6.5 mL of Redi-Safe (Beckman Instruments, Fullerton, Calif.). Radioactivity was measured with a Beckman liquid scintillation counter (LS 5000TD).
as §3

Kd [1] [nM] | Kd [2] [nM] | Kd [3] [nM] | SMILES | specificity for hNET compared to venlafaxine (in words) [1] | specificity for hDAT compared to venlafaxine (in words) [2] | specificity for hSERT relative to hNET and hDAT (in words) [3] | specificity for hSERT compared to venlafaxine (in words) [3] | binding to hNET ranked among all compounds tested (in words) [1] | specificity for hNET relative to hSERT and hDAT (in words) [1]
60 | 800 | 2.6 | CC(C)[C@@H](O)[C@H](CN(C)C)c1ccc2ccccc2c1 [Compound D2, (2S, 3R)-N,N-dimethyl-3-hydroxy-4-methyl-2-(2′-naphthyl)pentylamine] | greater specificity for all three transporters compared to venlafaxine | greater specificity for all three transporters compared to venlafaxine | greater specificity for hSERT than for hNET or hDAT | greater specificity for all three transporters compared to venlafaxine | – | –
150 | 1280 | 7 | CC(C)C(O)C(CN)c1ccc2ccccc2c1 (single isomer, unassigned) [Compound C1] | greater specificity for all three transporters compared to venlafaxine | greater specificity for all three transporters compared to venlafaxine | greater specificity for hSERT than for hNET of hDAT | greater specificity for all three transporters compared to venlafaxine | – | –
329 | 880 | 5.7 | CC(C)C(O)C(CN)c1ccc2ccccc2c1 (racemic) [Compound C, racemic mixture of (2R, 3S)- and (2S, 3R)-3-hydroxy-4-methyl-2-(2′-naphthyl)pentylamine] | greater specificity for all three transporters compared to venlafaxine | greater specificity for all three transporters compared to venlafaxine | more potent inhibitor of hSERT than of hNET or hDAT | greater specificity for all three transporters compared to venlafaxine | – | –
7.4 | 150 | 4.2 | CC(C)[C@H](O)[C@@H](CN(C)C)c1ccc2ccccc2c1 [Compound D1, (2R, 3S)-N,N-dimethyl-3-hydroxy-4-methyl-2-(2′-naphthyl)pentylamine] | greater specificity for all three transporters compared to venlafaxine | greater specificity for all three transporters compared to venlafaxine | – | greater specificity for all three transporters compared to venlafaxine | – | –
14.6 | 180 | 0.3 | CC(C)C(O)C(CN(C)C)c1ccc2ccccc2c1 (racemic) [Compound D, racemic mixture of (2R, 3S)- and (2S, 3R)-N,N-dimethyl-3-hydroxy-4-methyl-2-(2′naphthyl)pentylamine] | more potent inhibitor of all three transporters compared to vanlafaxine | more potent inhibitor of all three transporters compared to vanlafaxine | stronger binding to hSERT than to hNET or hDAT | more potent inhibitor of all three transporters compared to vanlafaxine | – | –
– | – | – | CN(C)C[C@H](c1ccc2ccccc2c1)[C@@H](O)c1ccccc1 (racemic) [F, racemic mixture of (2S, 3R)- and (2R, 3S)-N,N-dimethyl-3-hydroxy-2-(2′-naphthyl)-3-phenylpropylamine] | – | greater specificity for hDAT compared to vanlafaxine | – | – | – | –
– | 420 | – | NCC(c1ccc2ccccc2c1)C(O)c1ccccc1 (racemic) [E, racemic mixture of (2S, 3R)- and (2R, 3S)-3-hydroxy-2-(2′naphthyl)-3-phenylpropylamine] | – | greater specificity for hDAT compared to vanlafaxine | – | – | – | –
140 | 1600 | 15.1 | CC(C)C(O)C(CN)c1ccc2ccccc2c1 (single isomer, unassigned) [Compound C2] | – | greater specificity for all three transporters compared to venlafaxine | greater specificity for hSERT than for hNET of hDAT | – | – | –

SMILES | Kd [1] [nM] | Kd [2] [nM] | Kd [3] [nM] | specificity for hNET compared to venlafaxine (in words) [1] | specificity for hDAT compared to venlafaxine (in words) [2] | specificity for hSERT relative to hNET and hDAT (in words) [3] | specificity for hSERT compared to venlafaxine (in words) [3] | binding to hNET ranked among all compounds tested (in words) [1] | specificity for hNET relative to hSERT and hDAT (in words) [1]
CNCC(c1ccc2ccccc2c1)C(O)c1ccccc1 (racemic) [Compound A, racemic mixture of (2R, 3R)- and (2S, 3S)-N-methyl-3-hydroxy-2-(2′-naphthyl)-3-phenylpropylamine] | 0.25 | 130 | 6.3 | – | – | – | – | strongest binding to hNET of all the compounds tested | greater specificity for hNET than for hSERT or hDAT
CNCC(c1ccc2ccccc2c1)C(O)c1ccccc1 (racemic) [Compound B, racemic mixture of (2S, 3R)- and (2R, 3S)-N-methyl-3-hydroxy-2-(2′-naphthyl)-3-phenylpropylamine] | – | 390 | – | – | greater specificity for hDAT than the parent analogue venlfaxine | – | – | – | –
